Test results as given in ChEMBL document CHEMBL2203026.

Assays:
[1] = biological target: T1, Metabotropic glutamate receptor 2 (Homo sapiens, UniProt Q14416); assay: Negative allosteric modulation of mGlu2 by cell-based assay
[2] = biological target: T2, Metabotropic glutamate receptor 3 (Homo sapiens, UniProt Q14832); assay: Negative allosteric modulation of mGlu3 assessed as thallium flux through GIRK channels by cell-based assay
Target sequence in this assay (Q14832 whole entry): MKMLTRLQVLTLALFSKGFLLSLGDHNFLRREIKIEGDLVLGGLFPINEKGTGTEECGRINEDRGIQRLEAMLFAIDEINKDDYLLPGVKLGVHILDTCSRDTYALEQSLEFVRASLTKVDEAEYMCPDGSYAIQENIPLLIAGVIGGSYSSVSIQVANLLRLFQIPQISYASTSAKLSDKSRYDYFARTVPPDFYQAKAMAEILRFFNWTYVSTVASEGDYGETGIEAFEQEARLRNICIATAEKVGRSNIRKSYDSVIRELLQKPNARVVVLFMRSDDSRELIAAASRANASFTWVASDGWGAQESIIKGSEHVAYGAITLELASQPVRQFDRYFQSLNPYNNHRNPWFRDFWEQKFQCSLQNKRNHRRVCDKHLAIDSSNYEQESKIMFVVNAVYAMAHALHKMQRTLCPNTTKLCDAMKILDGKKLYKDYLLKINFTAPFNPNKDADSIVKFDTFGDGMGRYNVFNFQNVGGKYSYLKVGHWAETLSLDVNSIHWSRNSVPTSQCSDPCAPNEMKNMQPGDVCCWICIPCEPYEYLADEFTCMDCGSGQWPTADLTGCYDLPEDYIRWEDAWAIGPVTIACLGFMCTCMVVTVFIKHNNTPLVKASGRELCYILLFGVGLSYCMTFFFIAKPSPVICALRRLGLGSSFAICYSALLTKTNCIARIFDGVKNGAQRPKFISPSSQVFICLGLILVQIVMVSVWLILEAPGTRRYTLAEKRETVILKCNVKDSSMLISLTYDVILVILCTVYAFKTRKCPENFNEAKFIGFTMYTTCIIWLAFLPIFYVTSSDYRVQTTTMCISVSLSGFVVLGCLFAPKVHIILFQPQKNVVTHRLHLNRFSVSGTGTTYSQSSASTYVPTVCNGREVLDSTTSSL

[3] = biological target: T2, Metabotropic glutamate receptor 3; assay: Negative allosteric modulation of mGlu3 assessed as inhibition of glutamate-induced thallium flux through GIRK channels by cell-based assay; design: concentration or dose not given beside the values; details: concentration not given here
Target sequence in this assay (Q14832 23-879 limits assumed): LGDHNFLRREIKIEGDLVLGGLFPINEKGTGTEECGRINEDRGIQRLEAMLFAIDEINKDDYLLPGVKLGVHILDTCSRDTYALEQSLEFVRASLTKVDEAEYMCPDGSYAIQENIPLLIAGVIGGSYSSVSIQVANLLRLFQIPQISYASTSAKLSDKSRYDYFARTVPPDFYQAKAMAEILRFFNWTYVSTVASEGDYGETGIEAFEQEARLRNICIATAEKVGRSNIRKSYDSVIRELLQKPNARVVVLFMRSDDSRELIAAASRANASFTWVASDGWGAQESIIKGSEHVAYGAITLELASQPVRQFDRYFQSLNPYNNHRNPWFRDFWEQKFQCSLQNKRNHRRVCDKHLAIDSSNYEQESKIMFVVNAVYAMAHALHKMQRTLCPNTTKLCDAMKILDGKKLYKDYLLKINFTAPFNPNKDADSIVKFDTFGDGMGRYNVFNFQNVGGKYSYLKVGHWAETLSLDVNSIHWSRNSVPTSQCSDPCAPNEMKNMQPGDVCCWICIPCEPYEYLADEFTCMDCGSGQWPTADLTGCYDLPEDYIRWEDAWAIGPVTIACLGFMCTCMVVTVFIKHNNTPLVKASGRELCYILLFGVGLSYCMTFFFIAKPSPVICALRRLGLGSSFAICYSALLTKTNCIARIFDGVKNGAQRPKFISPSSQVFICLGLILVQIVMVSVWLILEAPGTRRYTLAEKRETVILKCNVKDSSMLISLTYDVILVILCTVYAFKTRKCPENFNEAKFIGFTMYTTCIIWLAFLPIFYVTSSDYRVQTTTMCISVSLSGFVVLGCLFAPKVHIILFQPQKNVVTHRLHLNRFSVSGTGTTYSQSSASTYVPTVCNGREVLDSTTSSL

[4] = biological target: T2, Metabotropic glutamate receptor 3; assay: Negative allosteric modulation of mGlu3 assessed as inhibition of glutamate-induced calcium mobilization in presence of Galpha15 by cell based assay; format: functional
Target sequence in this assay (Q14832 whole entry): as the sequence (Q14832 whole entry) above

[5] = biological target: T3, Metabotropic glutamate receptor 5 (Rattus norvegicus, UniProt P31424); assay: Positive allosteric modulation of mGlu5 assessed as potentiation of glutamate-induced calcium mobilization by cell based assay; format: functional
Target sequence in this assay (P31424 whole entry, looked up): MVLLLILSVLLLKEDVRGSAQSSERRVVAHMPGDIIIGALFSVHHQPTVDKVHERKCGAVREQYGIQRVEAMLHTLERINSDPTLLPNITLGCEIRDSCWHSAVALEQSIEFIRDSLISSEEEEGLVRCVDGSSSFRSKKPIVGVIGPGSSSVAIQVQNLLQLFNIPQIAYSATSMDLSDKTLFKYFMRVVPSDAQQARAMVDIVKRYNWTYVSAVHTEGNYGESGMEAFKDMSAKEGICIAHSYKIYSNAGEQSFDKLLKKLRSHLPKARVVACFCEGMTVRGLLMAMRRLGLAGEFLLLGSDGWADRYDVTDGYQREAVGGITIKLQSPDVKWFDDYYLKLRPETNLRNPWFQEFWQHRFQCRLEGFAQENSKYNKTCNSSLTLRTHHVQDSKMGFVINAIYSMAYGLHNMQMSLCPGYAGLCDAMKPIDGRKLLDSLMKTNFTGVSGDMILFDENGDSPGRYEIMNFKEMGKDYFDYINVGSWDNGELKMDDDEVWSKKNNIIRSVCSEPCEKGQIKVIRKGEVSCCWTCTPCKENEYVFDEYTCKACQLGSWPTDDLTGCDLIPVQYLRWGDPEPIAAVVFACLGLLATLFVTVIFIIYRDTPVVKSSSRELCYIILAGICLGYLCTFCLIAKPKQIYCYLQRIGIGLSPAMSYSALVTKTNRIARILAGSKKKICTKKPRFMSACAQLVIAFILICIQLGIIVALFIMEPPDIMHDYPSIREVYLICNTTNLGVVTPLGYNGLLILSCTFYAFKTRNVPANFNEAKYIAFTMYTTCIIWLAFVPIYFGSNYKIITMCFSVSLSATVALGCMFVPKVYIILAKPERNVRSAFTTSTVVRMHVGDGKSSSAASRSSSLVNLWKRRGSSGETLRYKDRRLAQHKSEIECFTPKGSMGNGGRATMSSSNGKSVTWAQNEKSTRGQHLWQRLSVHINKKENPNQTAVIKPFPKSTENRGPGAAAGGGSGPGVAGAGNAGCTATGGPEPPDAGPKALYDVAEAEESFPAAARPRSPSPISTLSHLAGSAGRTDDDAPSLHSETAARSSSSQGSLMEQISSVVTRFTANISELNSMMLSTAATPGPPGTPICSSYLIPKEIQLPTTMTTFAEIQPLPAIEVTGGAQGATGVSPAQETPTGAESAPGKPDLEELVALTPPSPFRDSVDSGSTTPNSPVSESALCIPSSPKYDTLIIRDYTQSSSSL

[6] = Selectivity index, ratio IC50 for mGlu2 to IC50 for mGlu3
Cytochrome P450 3A4 = Cytochrome P450 3A4 (Homo sapiens, UniProt P08684); assay: Inhibition of CYP3A4 in human liver microsomes; format: ADME, Microsome
Cytochrome P450 2C9 = Cytochrome P450 2C9 (Homo sapiens, UniProt P11712); assay: Inhibition of CYP2C9 in human liver microsomes; format: ADME, Microsome
Cytochrome P450 2D6 = Cytochrome P450 2D6 (Homo sapiens, UniProt P10635); assay: Inhibition of CYP2D6 in human liver microsomes; format: ADME, Microsome
Cytochrome P450 1A2 = biological target: T4, Cytochrome P450 1A2 (Homo sapiens, UniProt P05177); assay: Inhibition of CYP1A2 in human liver microsomes; format: ADME, Microsome
T4 sequence (P05177 whole entry): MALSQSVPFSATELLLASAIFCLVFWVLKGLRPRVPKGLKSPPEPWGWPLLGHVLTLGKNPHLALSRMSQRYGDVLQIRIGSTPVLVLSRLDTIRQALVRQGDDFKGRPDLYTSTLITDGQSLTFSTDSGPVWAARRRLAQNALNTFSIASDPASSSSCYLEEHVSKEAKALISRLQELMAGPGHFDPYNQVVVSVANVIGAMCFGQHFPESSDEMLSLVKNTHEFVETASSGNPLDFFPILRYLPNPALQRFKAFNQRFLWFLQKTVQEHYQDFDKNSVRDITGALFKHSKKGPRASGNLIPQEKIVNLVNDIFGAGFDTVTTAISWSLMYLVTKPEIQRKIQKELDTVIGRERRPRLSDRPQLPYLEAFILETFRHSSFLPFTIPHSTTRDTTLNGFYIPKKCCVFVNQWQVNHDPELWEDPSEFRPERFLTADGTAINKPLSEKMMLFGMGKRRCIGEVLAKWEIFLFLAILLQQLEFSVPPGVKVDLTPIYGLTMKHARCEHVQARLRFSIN

[7] = Fraction unbound in rat plasma; format: ADME, cell-free
[8] = Fraction unbound in human plasma; format: ADME, cell-free
[9] = Clearance in rat at 1 mg/kg, iv; format: ADME, organism-based; design: dose 1 mg/kg, route intravenous; details: in vivo
[10] = Volume of distribution at steady-state concentration in rat at 1 mg/kg, iv; format: ADME, organism-based; design: dose 1 mg/kg, route intravenous; details: in vivo, read-out: Vdss
[11] = Half life in rat at 1 mg/kg, iv; format: ADME, organism-based; design: dose 1 mg/kg, route intravenous; details: in vivo
Brain = assay: Drug level in rat brain at 10 mg/kg; format: ADME, organism-based; design: dose 10 mg/kg; details: in vivo, read-out: Drug uptake
Plasma = assay: Plasma concentration in rat at 10 mg/kg; format: ADME, organism-based; design: dose 10 mg/kg; details: in vivo
Nucleic Acid = assay: Ratio of drug level in brain to plasma of rat at 10 mg/kg; format: ADME, organism-based; design: dose 10 mg/kg
[12] = biological target: T3, Metabotropic glutamate receptor 5; assay: Negative allosteric modulation of mGlu5 assessed as inhibition of glutamate-induced calcium mobilization by cell based assay; format: functional
Target sequence in this assay (P31424 whole entry, looked up): as the sequence (P31424 whole entry, looked up) above

[13] = Drug metabolism in rat liver microsome assessed as CYP450-mediated (R)-(3-(hydroxymethyl)piperidin-1-yl)(4-((4-hydroxyphenyl)ethynyl)phenyl)methanone formation; format: ADME; details: microsomes
[14] = Drug metabolism in human liver microsome assessed as CYP450-mediated (R)-(3-(hydroxymethyl)piperidin-1-yl)(4-((4-hydroxyphenyl)ethynyl)phenyl)methanone formation; format: ADME; details: microsomes
[15] = biological target: T1, Metabotropic glutamate receptor 2; assay: Negative allosteric modulation of human mGlu2 expressed in AV-12 cells in presence of glutamate EC90 concentration by FLIPR assay; format: cell-based, AV12
[16] = biological target: T2, Metabotropic glutamate receptor 3; assay: Negative allosteric modulation of human mGlu3 expressed in AV-12 cells in presence of glutamate EC90 concentration by FLIPR assay; format: cell-based, AV12
Target sequence in this assay (Q14832 whole entry): as the sequence (Q14832 whole entry) above

[17] = biological target: T1, Metabotropic glutamate receptor 2; assay: Negative allosteric modulation of mGlu2 assessed as thallium flux through GIRK channels by cell-based assay
[18] = biological target: T2, Metabotropic glutamate receptor 3; assay: Negative allosteric modulation of mGlu3 by cell-based assay
Target sequence in this assay (Q14832 whole entry): as above

[19] = biological target: T3, Metabotropic glutamate receptor 5; assay: Positive allosteric modulation of rat mGlu5 expressed in HEK293 cells in presence of glutamate EC20 concentration by Fluo-2AM dye based fluorescence analysis; format: cell-based
Target sequence in this assay (P31424 whole entry): as the sequence (P31424 whole entry, looked up) above

[20] = biological target: Metabotropic glutamate receptor 3 (Rattus norvegicus, UniProt P31422); assay: Negative allosteric modulation of rat mGlu3 assessed as assessed as thallium flux through GIRK channels by cell-based assay

T1 sequence (Q14416 whole entry): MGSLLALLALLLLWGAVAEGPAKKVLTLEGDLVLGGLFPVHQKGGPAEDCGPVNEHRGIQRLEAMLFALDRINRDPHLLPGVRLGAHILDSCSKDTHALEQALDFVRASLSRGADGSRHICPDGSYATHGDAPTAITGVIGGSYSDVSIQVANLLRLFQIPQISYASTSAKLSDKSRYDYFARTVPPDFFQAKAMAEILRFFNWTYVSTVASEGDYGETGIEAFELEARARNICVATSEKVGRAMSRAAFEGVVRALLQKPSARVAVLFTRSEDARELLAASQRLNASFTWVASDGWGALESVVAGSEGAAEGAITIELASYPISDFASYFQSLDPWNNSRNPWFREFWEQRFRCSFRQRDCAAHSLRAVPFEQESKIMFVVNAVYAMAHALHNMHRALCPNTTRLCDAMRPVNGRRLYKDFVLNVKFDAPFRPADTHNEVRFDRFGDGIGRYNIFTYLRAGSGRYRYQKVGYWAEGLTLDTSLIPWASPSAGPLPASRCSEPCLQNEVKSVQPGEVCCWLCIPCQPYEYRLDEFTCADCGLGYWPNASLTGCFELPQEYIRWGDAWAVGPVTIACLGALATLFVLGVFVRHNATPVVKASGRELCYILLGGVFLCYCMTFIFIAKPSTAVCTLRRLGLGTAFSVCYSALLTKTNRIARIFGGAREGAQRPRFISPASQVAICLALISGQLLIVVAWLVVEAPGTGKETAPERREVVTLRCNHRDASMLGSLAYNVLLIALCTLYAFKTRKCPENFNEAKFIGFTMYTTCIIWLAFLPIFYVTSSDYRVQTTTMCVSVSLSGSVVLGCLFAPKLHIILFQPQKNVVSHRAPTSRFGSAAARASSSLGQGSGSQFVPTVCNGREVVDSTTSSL
Sequence of Cytochrome P450 2C9 (P11712 whole entry): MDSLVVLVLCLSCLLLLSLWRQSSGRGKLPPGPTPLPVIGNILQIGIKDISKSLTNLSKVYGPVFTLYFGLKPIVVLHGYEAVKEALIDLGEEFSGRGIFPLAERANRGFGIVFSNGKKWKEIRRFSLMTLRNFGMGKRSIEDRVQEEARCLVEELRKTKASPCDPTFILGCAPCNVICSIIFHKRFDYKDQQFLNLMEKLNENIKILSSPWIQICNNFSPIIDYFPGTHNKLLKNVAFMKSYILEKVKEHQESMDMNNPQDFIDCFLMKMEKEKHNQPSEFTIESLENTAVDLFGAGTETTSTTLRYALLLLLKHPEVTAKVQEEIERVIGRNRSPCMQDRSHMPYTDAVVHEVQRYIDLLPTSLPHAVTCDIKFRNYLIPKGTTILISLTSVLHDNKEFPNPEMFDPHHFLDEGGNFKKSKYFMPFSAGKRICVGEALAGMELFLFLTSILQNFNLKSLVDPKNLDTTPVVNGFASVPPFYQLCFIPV
Sequence of Cytochrome P450 3A4 (P08684 whole entry): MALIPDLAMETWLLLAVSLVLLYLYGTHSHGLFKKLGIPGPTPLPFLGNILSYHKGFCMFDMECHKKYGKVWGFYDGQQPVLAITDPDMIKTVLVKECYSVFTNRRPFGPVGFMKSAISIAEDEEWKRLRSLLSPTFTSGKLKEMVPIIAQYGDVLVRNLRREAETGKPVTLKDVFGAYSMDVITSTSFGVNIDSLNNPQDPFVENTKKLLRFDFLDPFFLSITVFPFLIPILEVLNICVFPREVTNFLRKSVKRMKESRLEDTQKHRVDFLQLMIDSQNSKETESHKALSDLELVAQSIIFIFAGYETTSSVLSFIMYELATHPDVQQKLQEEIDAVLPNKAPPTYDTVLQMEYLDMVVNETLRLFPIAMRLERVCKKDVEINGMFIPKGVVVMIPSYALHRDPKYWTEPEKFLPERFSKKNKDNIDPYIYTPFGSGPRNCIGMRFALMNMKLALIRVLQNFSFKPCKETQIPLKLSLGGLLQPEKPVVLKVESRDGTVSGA

In the case of `COc1ccc(C#Cc2ccc(C(=O)N3CCC[C@@H](CO)C3)cc2)cc1`, the IC50 [1] is reported as over 10 µM, the IC50 ([2]; read-out: IC50) is reported as 1.5 µM and the inhibition [3] is reported as -4.4%. For the same molecule, the IC50 [4] was 0.66 µM, the EC50 [5] was over 10 µM and the Ratio IC50 [6] was 15. It also gave an IC50 (Cytochrome P450 3A4) of over 30 µM, an IC50 (Cytochrome P450 2C9) of over 30 µM and an IC50 (Cytochrome P450 2D6) of over 30 µM. The IC50 (Cytochrome P450 1A2) was over 30 µM, the fraction unbound [7] was 0.01 and the fraction unbound [8] was 0.02. It also gave a clearance [9] of 33 mL/min/kg, a Vd [10] of 0.6 L/kg and a half-life [11] of 16.8 min. The concentration (Brain) was 16.3 µM, the concentration (Plasma) was 9.7 µM and the BPR (Nucleic Acid) was 1.67. For the same molecule, the IC50 [12] was over 10 µM, the Drug metabolism [13] was “Active” and the Drug metabolism [14] was “Active”.

In the case of `COc1ccc(C#Cc2ccc(C(=O)N3CCC(C)(O)CC3)cc2)cc1`, the IC50 ([2]; read-out: IC50) is reported as 5 µM and the inhibition [3] is reported as 4.4%.

`Clc1ccc(CN[C@H]2CCN(c3ncc(Br)cn3)C2)c(Cl)c1` showed an IC50 [15] of over 12.5 µM, an IC50 [16] of 0.19 µM and an IC50 [17] of 17 µM. It also gave an IC50 ([2]; read-out: IC50) of 4.2 µM and a Ratio IC50 [6] of 4.

`COc1ccc(C#Cc2ccc(C(=O)N3CCCC(O)C3)cc2)cc1` (centres undefined) gave an IC50 ([2]; read-out: IC50) of 2.5 µM and an inhibition [3] of -1.1%.

With `Cc1cc(-c2cccc(C3=Nc4cc(C)c(C(F)(F)F)cc4NC(=O)C3)c2)cc(C)n1` the IC50 [1] was 0.296 µM and the IC50 [18] was 0.27 µM.

`COc1ccc(C#Cc2ccc(C(=O)N3CCCC(CO)C3)cc2)cc1` (racemic) showed an IC50 ([2]; read-out: IC50) of 2.1 µM and an inhibition [3] of 0.5%.

`CCN1CCC[C@H]1CC(=O)c1ccc(C#Cc2ccc(OC)cc2)cc1` gave an IC50 ([2]; read-out: IC50) of over 10 µM and an inhibition [3] of 9.6%.

With `COc1ccc(C#Cc2ccc(C(=O)N3CCN(C(C)C)CC3)cc2)cc1` the IC50 ([2]; read-out: IC50) was over 10 µM and the inhibition [3] was 7.6%.

In the case of `O=C(c1ccc(C#Cc2ccccc2)cc1)N1CCC(O)CC1`, the EC50 [19] is reported as 0.27 µM and the IC50 [20] is reported as over 10 µM.

`COc1ccc(C#Cc2ccc(C(=O)N3CCC[C@@H](C(=O)O)C3)cc2)cc1` showed an IC50 ([2]; read-out: IC50) of over 10 µM and an inhibition [3] of 16.4%.

In the case of `COc1ccc(C#Cc2ccc(C(=O)N3CCC[C@H](CO)C3)cc2)cc1`, the IC50 [1] is reported as over 10 µM, the IC50 ([2]; read-out: pIC50 (converted)) is reported as 3.24 µM and the inhibition [3] is reported as -1.7%.

Work on `COc1ccc(C#Cc2ccc(C(=O)N3CCC(O)CC3)cc2)cc1` yielded an IC50 ([2]; read-out: IC50) of 3.8 µM and an inhibition [3] of 10.4%.

For `COc1ccc(C#Cc2ccc(C(=O)N3CCC[C@H](C(=O)O)C3)cc2)cc1`, the IC50 ([2]; read-out: IC50) was 5.7 µM and the inhibition [3] was 2.2%.
